Test results reported in US20230095103A1, “COMPOSITIONS AND METHODS CONTAINING REDUCED NICOTINAMIDE RIBOSIDE FOR PREVENTION AND TREATMENT OF LUNG DISEASES AND CONDITIONS” (SOCIETE DES PRODUITS NESTLE S.A., priority 2020, published 2023).
Where a name gives a salt, the structure may show the parent alone. Read-outs that look alike come from different tables or passages of the source. One block for each compound: values may come before it.

Experiments:
[1] = biological target: T1, adenosine kinase (AK) (Mus musculus, UniProt P55264); assay: NRH-induced NAD+ synthesis with adenosine kinase inhibitors in AML12 cells; assay type: cell-based; conditions: for effect of AK inhibitor on the action of NRH (NAD+ synthesis): inhibitor given before NRH treatment
T1 construct: endogenous in cells; host or cells: AML12 cells
T1 sequence (P55264 whole entry): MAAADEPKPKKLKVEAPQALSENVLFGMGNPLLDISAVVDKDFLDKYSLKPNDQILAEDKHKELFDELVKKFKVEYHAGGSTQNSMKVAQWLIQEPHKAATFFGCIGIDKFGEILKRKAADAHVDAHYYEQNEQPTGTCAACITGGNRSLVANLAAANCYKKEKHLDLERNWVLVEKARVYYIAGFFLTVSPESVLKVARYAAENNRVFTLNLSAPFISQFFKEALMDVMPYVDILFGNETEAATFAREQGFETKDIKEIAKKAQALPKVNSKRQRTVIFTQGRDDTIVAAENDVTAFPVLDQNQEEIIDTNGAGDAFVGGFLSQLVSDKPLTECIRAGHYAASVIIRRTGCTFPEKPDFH
Experimental: AML12 cells were treated with an adenosine kinase inhibitor (5-IT; […]) for 1 hour prior to NRH treatment at the doses indicated. Then, 1 hour later, acidic extracts were obtained to measure NAD^+ levels. All values in the figure are expressed as mean+/−SEM of 3 independent experiments. * indicates statistical difference at p<0.05 vs. the respective vehicle treated group.

[2] = tested on: intracellular NRH, NMNH, NR and NMN; assay: Intracellular NAD-related metabolites after NRH or NR treatment; assay type: cell-based; conditions: for intracellular detection of NRH and NMNH: 5 minutes after treatment
Source text: (§1) Levels of NRH and other NAD-related metabolites in biological samples were obtained by using a cold liquid-liquid extraction using a mixture of methanol:water:chloroform in 5:3:5 (v/v), from which the polar phase was recovered for hydrophilic interaction ultra-high performance liquid chromatography mass spectrometry (UHPLC-MS) analysis. The UHPLC consisted of a binary pump, a cooled autosampler, and a column oven (DIONEX Ultimate 3000 UHPLC+ Focused, Thermo Scientific), connected to a triple quadrupole spectrometer (TSQ Vantage, Thermo Scientific) equipped with a heated electrospray ionisation (H-ESI) source. Of each sample, 2 μL were injected into the analytical column (2.1 mm×150 mm, 5 μm pore size, 200 Å HILICON iHILIC®-Fusion(P)), guarded by a pre-column (2.1 mm×20 mm, 200 Å HILICON iHILIC®-Fusion(P) Guard Kit) operating at 35° C. The mobile phase (10 mM ammonium acetate at pH 9, A, and acetonitrile, B) was pumped at 0.25 mL/min flow rate over a linear gradient of decreasing organic solvent (0.5-16 min, 90-25% B), followed by re-equilibration for a total run time of 30 min. The MS operated in positive mode at 3500 V with multiple reaction monitoring (MRM). The software Xcalibur v4.1.31.9 (Thermo Scientific) was used for instrument control, data acquisition and processing. Retention time and mass detection was confirmed by authentic standards.
A path in which NRH would be converted to NMNH, then to NADH and this would be finally oxidized to NAD+.

[3] = Stability of NRH or NR spiked in isolated mouse plasma; assay type: in vitro ADME
Experimental: (§2) NR degradation to NAM has been proposed as a limitation for its pharmacological efficacy. To evaluate whether NRH was also susceptible to degradation to NAM, we spiked NRH or NR in isolated mouse plasma. […] We also tested the stability of NRH in other matrixes. […] Finally, we also certified NRH stability in water (pH=7, at room temperature) for 48 h.

[4] = Stability in FBS supplemented media; assay type: in vitro ADME
Experimental: as §2

[5] = Intraperitoneal injection of NR or NRH in mice: tissue NAD+ and circulating metabolites; assay type: in vivo; conditions: for NAD+ levels in liver, muscle and kidney: mice, IP 500 mg/kg, after 1 h
Experimental: The above results prompted us to test whether NRH could act as an effective NAD+ precursor in vivo. For this, we first intraperitoneally (IP) injected mice with either NR or NRH (500 mg/kg). […] Importantly, NRH was detectable in circulation after IP injection.

[6] = assay type: in vivo, mice
Experimental: 8 week-old C57BI/6NTac mice were orally gavaged with either saline (as vehicle), NR (500 mg/kg) or NRH (500 mg/kg). After 1 hour, liver, skeletal muscle and kidney NAD+ levels were evaluated. All results are expressed as mean+/−SEM of n=5 mice per group. * indicates statistical difference at p<0.05 vs. vs. saline-treated mice. # indicates statistical difference at p<0.05 vs. NR treated mice.
Oral administration of NRH led to very similar results to those observed after IP administration. […] NRH was detectable in plasma 1 h after oral administration. In contrast, NR levels were undetectable at 1 h after NR administration.

[7] = tested on: NRK1; assay: NAD+ levels in primary hepatocytes from control or NRK1 knockout mice; conditions: after 1 hour of treatment
[8] = tested on: AML12 hepatocytes; assay: Intracellular NAD+ levels in AML12 hepatocytes after NRH or NR treatment (dose-response, time course); assay type: cell-based
Source text: as §1
Even at such relatively low dose, NRH achieved similar increases in intracellular NAD+ levels to those reached with NR at 50-fold higher concentrations. NRH achieved maximal effects on NAD+ synthesis around the millimolar range, managing to increase intracellular NAD+ levels by more than 10-fold.
NRH actions were also extremely fast (FIG. 3), as significant increases in NAD+ levels were observed within 5 minutes after NRH treatment.

[9] = tested on: C2C12 myotubes; assay: NAD+ levels in C2C12 myotubes after NRH treatment; assay type: cell-based
Experimental: (§3) The ability of NRH to potently increase NAD+ was tested as well in other cell type models.

[10] = tested on: INS1-cells; assay: NAD+ levels in INS1-cells after NRH treatment; assay type: cell-based
Experimental: as §3

[11] = tested on: 3T3 fibroblasts; assay: NAD+ levels in 3T3 fibroblasts after NRH treatment; assay type: cell-based
Experimental: as §3

[12] = tested on: equilibrative nucleoside transporters (ENTs); assay: NRH-induced NAD+ synthesis under ENT blockade with NBTI; assay type: cell-based; conditions: in the presence of NBTI
Source text: In order to understand the exact path by which NRH synthesizes NAD+, we initially evaluated whether NRH, could be transported into the cell by equilibrative nucleoside transporters (ENTs).

[13] = biological target: T2, NAMPT (Mus musculus, UniProt Q99KQ4); assay: NRH action in the presence of the NAMPT inhibitor FK866; assay type: cell-based; conditions: with FK866, a NAMPT inhibitor
T2 construct: endogenous in cells
T2 sequence (Q99KQ4 whole entry): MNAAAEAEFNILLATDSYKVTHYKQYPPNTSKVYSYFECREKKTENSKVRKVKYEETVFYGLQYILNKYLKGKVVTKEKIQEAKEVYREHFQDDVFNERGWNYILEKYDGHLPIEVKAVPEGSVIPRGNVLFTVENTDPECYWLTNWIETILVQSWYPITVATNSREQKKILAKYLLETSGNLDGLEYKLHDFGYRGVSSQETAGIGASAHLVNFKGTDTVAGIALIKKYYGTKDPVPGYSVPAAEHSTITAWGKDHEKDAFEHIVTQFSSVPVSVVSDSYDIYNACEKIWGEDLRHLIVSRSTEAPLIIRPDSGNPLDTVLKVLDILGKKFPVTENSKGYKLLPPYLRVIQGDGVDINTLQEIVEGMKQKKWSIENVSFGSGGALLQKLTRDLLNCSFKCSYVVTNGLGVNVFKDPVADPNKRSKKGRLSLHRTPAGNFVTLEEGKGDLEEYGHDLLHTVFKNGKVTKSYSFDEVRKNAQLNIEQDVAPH

[14] = assay type: physicochemical
Experimental: as §2

[15] = design: species or system mice; conditions: mouse, in vivo, 250 mg/kg
Experimental: 8 week-old C57BI/6NTac mice were orally gavaged with either saline (as vehicle), and NRH (250 mg/kg). After 2 hours, liver, skeletal muscle and kidney NRH levels were evaluated. All results are expressed as mean+/−SEM of n=4 mice per group, as areas under the signal by LC-MS analysis, corrected by total protein amount of tissue.

[16] = tested on: Salmonella enterica serovar Typhimurium; assay: Anti-bacterial response of monocyte-derived macrophages against Salmonella (CFU counts); assay type: cell-based; conditions: 0.01 mM NRH for 42 h prior to infection, MOI 10
Experimental: Monocyte-derived macrophages were treated with 0.01 mM NRH for 42 h prior to infection with Salmonella enterica serovar Typhimurium for 1 h using a multiplicity of infection of 10. Following infection, macrophages were treated with gentamicin for 2 h before cell lysis. Values show absolute colony forming unit (CFU) counts with each dot representing one donor and each line representing paired samples. Graphs show pooled data of 2 independent experiments with 2-3 donors/experiment.

[17] = tested on: NMNAT; assay: NRH-induced NAD+ synthesis with the NMNAT inhibitor gallotannin; assay type: cell-based
Source text: As a follow-up step, NMNAT enzymes could catalyze the transition from NMNH to NADH.

[18] = isolated mouse plasma, 2 h of incubation

Structure (SMILES): Nc1ncnc2c1c(I)cn2[C@@H]1O[C@H](CO)[C@@H](O)[C@H]1O [5-IT, 5-iodotubercidin]
formation of NR and NMN after NRH treatment ([1]; 5-IT treatment): prevented
effect of AK inhibitor on the action of NRH (NAD+ synthesis) [1]: fully ablated the action of NRH

effect of AK inhibitor on the action of NRH (NAD+ synthesis) [1]: confirmed
Structure (SMILES): Nc1ncnc2nc(-c3ccc(N4CCOCC4)nc3)cc(-c3cccc(Br)c3)c12 [ABT-702]

generation of NAM in plasma [3, 18]: increase in NAM
levels of the compound in plasma [3, 18]: decayed
degradation to NAM ([4]; FBS supplemented media): occurs
circulating NAM after NR treatment relative to NRH treatment ([6]; C57BI/6NTac, mouse, in vivo, po, 1 h): −4 fold
NAD+ levels in NRK1 KO derived primary hepatocytes [7]: failed to increase NAD+ levels
Structure (SMILES): NC(=O)c1ccc[n+]([C@@H]2O[C@H](CO)[C@@H](O)[C@H]2O)c1 [NR, 1-b-D-ribofuranosyl-3-pyridinecarboxamide salt, reference compound]
intracellular detection of NRH and NMNH [2]: not
NAD+ levels in liver, muscle and kidney [5]: increased

Structure (SMILES): NC(=O)C1=CN([C@@H]2O[C@H](CO)[C@@H](O)[C@H]2O)C=CC1 [NRH, dihydro-1-beta-D-ribofuranosyl-3-pyridinecarboxamide]
time to significant increase in NAD+ levels after treatment ([8]; AML12 hepatocytes, FIG. 3): ≤ 5 min
increase of intracellular NAD+ levels at maximal effect ([8]; AML12 hepatocytes, around the millimolar range): more than 10 fold
ability to increase intracellular NAD+ ([8]; AML12 hepatocytes, compared with NR): superior to that of NR
concentration at which NAD+ levels are significantly increased ([8]; AML12 hepatocytes, dose-response, FIG. 2): 10 µM
NR concentration needed for similar increase in intracellular NAD+, relative to NRH ([8]; NRH at 10 μM): 50 fold
NAD+ levels [9]: highly elevated NAD+ levels
NAD+ levels [10]: highly elevated NAD+ levels
NAD+ levels [11]: highly elevated NAD+ levels
intracellular detection of NRH and NMNH [2]: could be detected
increase in intracellular NR and NMN ([2]; after NRH treatment, compared with NR): greater than that triggered by NR itself
capacity as extracellular NAD+ precursor under ENT blockade [12]: largely lost its capacity as an extracellular NAD+ precursor
dependence of NRH action on NAMPT [13]: NAMPT-independent
generation of NMNH, NADH and NAD+ from NRH ([1]; upon inhibition of AK, metabolomic analyses): fully blunted
NR production in plasma [3]: did not lead to NR production
degradation to NAM [4]: did not degrade to NAM
stability in water [14]: 48 h
NAD+ levels in liver, muscle and kidney [5]: increased
NR in circulation after NRH treatment ([5]; mouse, in vivo, ip): much higher levels than those detected after NR injection itself
NRH in circulation ([5]; mouse, in vivo, ip): detectable
NAM levels in circulation ([5]; mouse, in vivo, ip, 500 mg/kg): only a very mild increase
effect on hepatic NAD+ levels ([6]; mice, oral administration, compared with NR): more potent effect on hepatic NAD+ levels than NR
NRH in liver, kidney and muscle [15]: found intact, in high levels
anti-bacterial macrophage response (CFU counts) [16]: able to augment anti-bacterial macrophage response

Structure (SMILES): O=C(OC[C@H]1O[C@@H](OC(=O)c2cc(O)c(O)c(OC(=O)c3cc(O)c(O)c(O)c3)c2)[C@H](OC(=O)c2cc(O)c(O)c(OC(=O)c3cc(O)c(O)c(O)c3)c2)[C@@H](OC(=O)c2cc(O)c(O)c(OC(=O)c3cc(O)c(O)c(O)c3)c2)[C@@H]1OC(=O)c1cc(O)c(O)c(OC(=O)c2cc(O)c(O)c(O)c2)c1)c1cc(O)c(O)c(OC(=O)c2cc(O)c(O)c(O)c2)c1 [gallotannin]
effect of NMNAT inhibitor on NAD+ synthesis after NRH treatment [17]: largely compromised NAD+ synthesis after NRH treatment
NRH action after gallotannin treatment ([17]; NRH at maximal doses (0.5 mM)): part of the NRH action remained
NRH action after gallotannin treatment ([17]; NRH at submaximal doses): totally blocked
